Assay type in all cases: cell-based, human
Assay [1] has as its system hypoxia-regulated genes (ELL2, VEGFA) in 293T cells. Put plainly: RT-qPCR of hypoxia-regulated genes in 293T cells. The following applies: normoxia and hypoxia (1% O2), 24 hours. On the procedure: (§1) Leukoreduction filters (Terumo BCT, Lakewood, Colo.), waste products of platelet donation process, were used to isolate PBMCs by an IRB-approved protocol. PBMCs were isolated using Histopaque-1077 (Sigma). Monocyte-enriched PBMCs (MEPs) were prepared using cold-aggregation method with slight modifications (30,60) Monocytes were isolated from MEPs or PBMCs using EasySep Human CD14 Positive Selection Kit (STEMCELL Technologies). Flow cytometric verification of isolated CD14+ cells were performed using RPCI core facility services. […]
(§2) RNA and plasmid DNA were isolated with commercial kits (TRIzol, Life Technologies and Qiagen, respectively). RNA/DNA was quantified by Nanodrop 2000 (Thermo Fisher). Proteins were quantified using Bio-Rad Dc assay with BSA standards. […] SDHB c.136C>U RNA editing was quantified by allele specific RT-qPCR PCR oligonucleotide primers (FIG. 13) were obtained from Integrated DNA Technologies, Inc. ADM, ELL2, HILPDA, NGLY1, MET, TKTL1, VEGFA and B2M gene expression levels was assessed by qPCR using FastStart Taq DNA polymerase and SYBR Green I dye on a LightCycler 480 System (Roche). Quantification cycle values were calculated by the instrument software using the maximum second derivative method and the mean quantification cycle value of duplicate PCR reactions was used for analysis. […]

Assay [2] concerns SDHB c.136C>U RNA editing in CD14+ monocytes. As to the kind of experiment: SDHB c.136C>U RNA editing in CD14+ monocytes isolated after culture of MEPs. Particulars: CD14+ cells, AtA5/normoxia 2 days, n=3 donors; normoxic controls 5.4%±1.7%.
Text: We examined whether MTCII also regulates induction of gene expression in primary monocytes under hypoxia or when inactivated, as observed in SDH-mutated paragangliomas. To test the impact of MTCII inhibition on monocyte gene expression, we cultured MEPs (n=3 donors) in normoxia (1 day), hypoxia (1 day) and AtA5/normoxia (2 days), isolated CD14+ monocytes and performed RNA seq analysis. […] HIF1A but not EPAS1 (HIF2A) or HIF3A is expressed robustly (RPKM averages 21.5, 0.17 and 0.01, respectively) in monocytes. […]
as §2

In assay [3] the test system is hypoxia-regulated genes (HILPDA, VEGFA) in THP-1 cells. Put plainly: RT-qPCR of hypoxia-regulated genes in THP-1 cells. Particulars: THP-1, normoxia or hypoxia (1%), 24 hours, HILPDA and VEGFA. On the procedure:
as §1, §2
(In general: Quantitative PCR measures a nucleic acid by following its amplification.)

Assay [4] has as its system A3A-mediated RNA editing (SDHB c.136 C>U) in monocyte-enriched PBMCs (MEPs). Put plainly: SDHB c.136 C>U RNA editing in monocyte-enriched PBMCs (allele specific RT-qPCR). The procedure: Leukoreduction filters (Terumo BCT, Lakewood, Colo.), waste products of platelet donation process, were used to isolate PBMCs by an IRB-approved protocol. PBMCs were isolated using Histopaque-1077 (Sigma). Monocyte-enriched PBMCs (MEPs) were prepared using cold-aggregation method with slight modifications (30,60) Monocytes were isolated from MEPs or PBMCs using EasySep Human CD14 Positive Selection Kit (STEMCELL Technologies). Flow cytometric verification of isolated CD14+ cells were performed using RPCI core facility services. The MEPs were cultured at an average density of 25-35×10^6/ml in 1 or 2 ml per well in 6- or 12-well standard tissue culture plates under standard conditions (37° C./5% CO2) in RPMI-1640 medium with 10% FBS, 100 U/ml penicillin and […] streptomycin (Mediatech). Isolated CD14+ and CD14− cells were cultured at approximately 5×10^6 cell/ml and 7×10^6 cells per ml densities, respectively. THP-1 and TLA-HEK293T cell lines were purchased from ATCC, and Open Biosystems®, respectively, and cultured in recommended conditions. THP-1 cells were cultured in 10^6 cells per 100 μl in 96-well culture plates in ATCC-formulated-1640 medium (30-2001), whereas 293T cells were cultured in DMEM medium supplemented with 10% FBS.
Cells were cultured under 1% or 6% O2, 5% CO2 and 94% N2 at 37° C. using Xvivo System (Biospherix). Human ‘universal’ type I IFN was obtained from PBL Assay Science and used at 600 U/ml. Atpenin A5 (Cayman chemical #11898), myxothiazol (Sigma-Aldrich, #T5580) and 2-Thenoyltrifluoroacetone (TTFA) (Sigma-Aldrich, #T27006) were used at 1-2 μM and 400 μM final concentrations, respectively. DFO (Sigma-Aldrich #D9533) and DMOG (Sigma-Aldrich #D3695) were used in 0.5 mM and 1.0 mM final concentrations, respectively.
RNA and plasmid DNA were isolated with commercial kits (TRIzol, Life Technologies and Qiagen, respectively). RNA/DNA was quantified by Nanodrop 2000 (Thermo Fisher). Proteins were quantified using Bio-Rad Dc assay with BSA standards. RNA was reverse transcribed with the Transcriptor First Strand cDNA Synthesis (Roche) kit. SDHB c.136C>U RNA editing was quantified by allele specific RT-qPCR PCR oligonucleotide primers (FIG. 13) were obtained from Integrated DNA Technologies, Inc. ADM, ELL2, HILPDA, NGLY1, MET, TKTL1, VEGFA and B2M gene expression levels was assessed by qPCR using FastStart Taq DNA polymerase and SYBR Green I dye on a LightCycler 480 System (Roche). Quantification cycle values were calculated by the instrument software using the maximum second derivative method and the mean quantification cycle value of duplicate PCR reactions was used for analysis. Delta delta CT method is used to infer gene expression changes.

These results are taken from US20200375963A1 (priority 2017, published 2020).

As to `COc1[nH]c(O)c(C(=O)[C@@H](C)C[C@H](C)[C@@H](Cl)CCl)c(=O)c1OC` [AtA5, 3-((2S,4S,5R)-5,6-dichloro-2,4-dimethylhexanoyl)-2-hydroxy-5,6-dimethoxypyridin-4(1H)-one], the “expression of hypoxia-regulated genes” value in assay [1] and in assay [3] was “suppressed” throughout. In assay [2], the “SDHB c.136C>U RNA editing (mean±SEM)” value is on record as 32.1%±14.9%. The “SDHB c.136 C>U RNA editing, AtA5 together with IFN1” value was “no additional effect” in assay [4] (hypoxia with IFN1) and “additive” in assay [4] (normoxia, IFN1 600 U/ml). The “SDHB c.136 C>U RNA editing” value in assay [4] (inhibitor jointly with hypoxia (1% O2), compared to hypoxia alone) was “did not further increase RNA editing levels”; in assay [4] (normoxia, 1-3 days), “induced SDHB c.C136U RNA editing”.
